From patent publication US8916212B2, “Skin whitening composition containing chia seed extract” (Access Business Group International LLC, priority 2011, dated 2014)

How the values were obtained:
[1] = test system: Melan-a murine melanocytes; experiment: Melanin inhibition assay; assay type: cell-based; conditions: melan-a cells; for reduction in melanin content: 100 μg/ml in 0.36% pentylene glycol:0.036% DMSO, FIG. 3
Description: (§1) Melan-a murine melanocytes (Wellcome Trust Functional Genomics Cell Bank, St. George Hospital, London, UK) were plated one day prior to treatment in 24 well plates at a density of 5×10^4 cells per well in 1 ml of melan-a cell medium (RPMI-1640, 10% Fetal Bovine Serum (FBS), 1% Penicillin/Streptomycin, 100 μM β-mercaptoethanol, 2 mM L-Glutamine and 200 nM Phorbol 12-myristate 13-acetate) in a 10% CO2 incubator maintained at 37° C. After seeding the cells for 24 hours in triplicate, cells were treated as indicated below. After two days of treatment, the culture media was changed and fresh samples were added and incubated overnight. The cells were initially tested for cell viability and cytoxicity using the WST-1 assay (Roche Applied Science). Following the WST-1 assay, the cells were washed in IX PBS and harvested in extraction buffer for melanin isolation and quantification.
Cells from each well of the 24 well plate were harvested in cell lysis buffer (1% Triton X 100, 50 mM Tris, 2 mM EDTA, 150 mM NaCl, pH 7.5 supplemented with a complete protease inhibitor cocktail). Cell lysates were centrifuged at 20,000 g for 10 min at 4° C. Protein levels in the supernatant were quantified using a Pierce BCA Protein assay kit (Thermo Scientific Corp). Melanin-containing precipitates were washed in 100 μl of ethanol:ether (1:1) for 10 min at room temperature. The ethanol:ether solution was discarded and the melanin-pellets were dissolved in 200 μl of 2N NaOH in 20% DMSO solution and incubated at 70° C. for 60 min. The resulting melanin extract was analyzed by measuring absorbance at 490 nm. The melanin content in each sample was evaluated by normalizing each sample to the total amount of protein.

melan-a cells = experiment: WST-1 assay for cell viability and cytotoxicity; assay type: cell-based, murine; conditions: at the concentrations tested
Description: as §1

Structure (SMILES) | reduction in melanin content [1] | cytotoxicity to melan-a cells (WST-1) (melan-a cells) | reduction of melanin content ([1]; positive control, FIG. 4 experiment) [%]
CCCCC/C=C\C/C=C\CCCCCCCC(=O)O [linoleic acid] | comparatively minor reductions | not cytotoxic | 
NC(=S)Nc1ccccc1 [phenylthiourea] |  |  | 70
CC/C=C\C/C=C\C/C=C\CCCCCCCC(=O)O [α-linolenic acid] | comparatively minor reductions | not cytotoxic | 
